“And” between values parts separate entries of the source, which are not always exact repeats. Identical values can stand only once. Ends that are not written are not given here.

The values that follow come from patent US20030119070A1, “Reagents for cell selection and methods of use” (Nexell Therapeutics, Inc., priority 2000, published 2003).

One experiment concerns CD2 T cells. The experiment can be described thus: T cell selection using CD2-PR34 conjugate and capture by direct binding of CD34 antibody to Dynabeads. In kind it is cell-based, human. The conditions noted are these: for % Purity / % Yield: release agent PR34+ 2.5 mg. As to the method:
The CD2 antibody B-E2 was conjugated to PR34™ peptide essentially as described in Example IV. MNCs were incubated essentially as described in Example IV using CD2-PR34 conjugate. The cells were then incubated with the CD34 antibody 9069 coated on M-450 Dynabeads (Dynal). The CD34 antibody coated beads were prepared by absorbing various amounts of anti-CD34 antibody on the bead surface. The beads were prebound with 0, 1, 5, 20, or 50 μg of antibody per 108 beads. As a control, an aliquot of cells was incubated with streptavidin coated Dynabeads.

In another experiment the test system is CD2+ T cells. The experiment can be described thus: Positive selection of CD2+ T cells using CD2-9069N, b-9069 and streptavidin beads. The conditions noted are these: release reagent 9069N 2.5 mg; for % T-cells released: 30 min./RT. It counts as cell-based, human. The source says:
To test the ability of a PR34+ peptide-conjugate to isolate a different cell type, the PR34+TM peptide was coupled to a CD2 antibody (B-E2; IgG2b isotype; Diaclone; Besancon, France) essentially as described in Example T. The PR34+TM peptide, also designated […], conjugated to the CD2 antibody was designated CD2-[…]. The biotinylated 9C5 antibody, also known as the 9069 antibody, was designated b-9069. Either mobilized or non-mobilized MNC preparations (see Example III) were used, with similar results. Cells were incubated with 1 μg or 5 μg of CD2-[…] conjugate for 15 min at room temperature (see Table 3). The cells were then incubated with 1 μg or 10 μg of biotinylated 9C5 antibody (b-9069) and streptavidin beads. Bound cells were subsequently incubated with either buffer or 2.5 mg of free PR34+TM peptide ([…]). Incubation conditions were essentially as described in Example II. The released cells were then quantitated and the purity determined. Purity and cell counts were assessed using an anti-CD3 antibody and the True Count flow cytometty quantitation method (Becton Dickenson; San Jose Calif.).

In another experiment the test system is CD8+ cells. The experiment in a line: Positive selection of CD8+ cells from a mononuclear cell preparation. Conditions: condition 2: biotinylated CD8 antibody capture; incubation with free PR34+ peptide. It counts as cell-based, human. The method, then:
To test the ability of the CD8-PR34+ conjugate to isolate CD8+ cells from a population, mononuclear cells (MNCs), which contain CD8+ cells, were prepared. Mononuclear cells were collected from human donors. Mononuclear cells were collected from a G-CSF mobilized human donor using a CS-3000™ (Baxter) following the protocol of the manufacturer. The starting population of MNCs was 19.42% CD3+/8+. For each rosetting reaction, a quantity of MNCs containing 2×10^6 CD8+ cells was used. Biotinylated CD8 antibody (MT-415) was biotinylated essentially as described in Example I. The MNCs were incubated under three conditions. In condition 1, MNCs were incubated with streptavidin beads alone. In condition 2, MNCs were incubated with biotinylated CD8 antibody, followed by streptavidin beads. In condition 3, MNCs were incubated with CD8-PR34+ conjugate, followed by biotinylated 9C5 and streptavidin beads. After incubation with streptavidin beads, the free cells were removed, and the cells attached to streptavidin beads were incubated with free PR34+™ peptide. The released cells were counted, and the number of CD8+ cells was evaluated using flow cytometry. The CD8+ cells were quantitated using a combination of CD3 and […]. CD3 is a pan T cell marker, and CD3+ populations can be further subdivided into mutually exclusive CD4+ and CD8 positive populations. […]

The next experiment deals with Camma cells. The experiment in a line: Positive selection of Camma cells using Pan-O-5-PR34 conjugate and anti-CD34-coated Dynabeads. In kind it is cell-based. Conditions: PR34 peptide 5 mg/ml, 30 min room temperature; FIG. 5, N=1. The method, then:
To prepare antibody-coated beads, Dynabeads (Dynal) were washed with Dulbecco's phosphate buffered saline (D-PBS). Washed beads were coated with 50 μg anti-CD34 monoclonal antibody per 10^8 beads for 24 hours at 4° C. The beads were washed twice with Isolex buffer and incubated with 1% albumin in the Isolex buffer for 24 hours at 4° C.
To synthesize the Pan-O-5-PR34 conjugate, the Pan-O-5 monoclonal antibody was incubated with N-(ε-maleimidocaproyloxy)succinimide ester for 30 min at room temperature to generate an antibody-linker complex. The antibody-linker complex was washed twice with D-PBS using an Amicon spin column (30 KD; Millipore Corp.; Bedford Mass.). The Pan-O-5-antibody-linker complex was incubated with PR34™ peptide for 30 min at room temperature. The Pan-O-5-linker-PR34 antibody complex was washed twice with D-PBS using an Amicon spin column. The concentration of the conjugate was determined by absorbance at 280 nm.
Cells (18×10^6) were incubated with Pan-O-5-linker-PR34 antibody (5 μg/ml) for 15 min. The cell-antibody complex was washed twice with Isolex buffer and incubated with anti-CD34-coated Dynabeads (5 beads per cell) for 30 min at room temperature. The Dynabeads were isolated with a magnet, and unbound cells were removed. The bead-cell fraction was incubated with PR34™ peptide (5 mg/ml) for 30 min at room temperature. […]

Another experiment concerns SUP-T1 cells. The experiment in a line: Flow cytometry of SUP-T1 cells sensitized with CD8-PR34+ conjugate, biotinylated 9C5 and streptavidin-PE, with or without free peptide. Conditions: SUP-T1 cells stained with conjugate, biotinylated 9C5, streptavidin-PE; free peptide 5.0 mg/ml, 15 min; FIG. 2. It counts as cell-based, human. As to the method:
For flow cytometry experiments, SUP-T1 cells were used. SUP-T1 is a T-lymphoma-derived tumor cell line known to express typical T cell surface markers. The SUP-T1 cells were prepared for flow cytometry and sequentially sensitized with the CD8 antibody-PR34+ peptide (CD8-PR34+) conjugate, biotinylated 9C5, and phycoerythrin-labeled (PE-labeled) streptavidin. The SUP-T1 cells were incubated with either streptavidin-PE; sequentially with the CD8-PR34+ conjugate, biotinylated 9C5, followed by streptavidin-PE; or sequentially with CD8-PR34+ conjugate, biotinylated 9C5, streptavidin-PE, followed by a 15 min incubation with free PR34+™ peptide. The SUP-T1 cells were then analyzed by flow cytometry. All incubations were performed in a mixture of Dulbecco's phosphate buffered saline (GibcoBRL), 0.05% azide, 1.0% human serum albumin (PAH). All incubations were for 15 min at room temperature and each was followed by a wash with 1.0 ml PAH. The stained cells were resuspended in 0.25 ml PAH for flow cytometry. SUP-T1 cells (1×10^6) were stained with 1 μg of either the CD8-9069N or the CD34-biotin. The peptide was used at 5.0 mg/ml.
On the technique in general: Flow cytometry measures light scatter and fluorescence of single cells or particles in a stream.

Setting [1] is: SA: streptavidin coated Dynabead control.

For the substance “Ac-QQGWFPKD [PR34+™ peptide, peptide capable of displacing the anti-CD34 antibody 9C5 (9069); used free as release agent]”, the “% Purity” value in the experiment with CD2 T cells (1 μg antibody per 10^8 beads) was 92.4%; in the experiment on CD2 T cells (5 μg antibody per 10^8 beads) it was 91.3%; in the experiment on CD2 T cells (20 μg antibody per 10^8 beads) it was 91.8%; with CD2 T cells (50 μg antibody per 10^8 beads), 91.4%; in the experiment on CD2 T cells (setting [1]) it was 94.5%. Moreover, the “% Yield” value in the experiment with CD2 T cells (1 μg antibody per 10^8 beads) is listed as 55.9%; with CD2 T cells (5 μg antibody per 10^8 beads) it was 68.9%; in the experiment with CD2 T cells (20 μg antibody per 10^8 beads) it was 47.4%; in the experiment with CD2 T cells (50 μg antibody per 10^8 beads), 57.5%; in the experiment with CD2 T cells (setting [1]), 81.5%; in the experiment with CD8+ cells it was “less than 3%”. The “purity of the cells released by free peptide” value in the experiment on CD2 T cells (summary, antibody-coated beads) is “greater than 90%”. In addition, in the experiment on CD2 T cells (summary, antibody-coated beads incubated with free PR34+ peptide), the “yield of CD2 cells” value is no less than 50%. Besides, the “% Purity (CD3+)” value is 89% with CD2+ T cells (CD2-9069N 1 μg, b-9069 1 μg); 87% and 74% with CD2+ T cells (CD2-9069N 1 μg, b-9069 10 μg); 88% and 81% in the experiment with CD2+ T cells (CD2-9069N 5 μg, b-9069 1 μg); 70% in the experiment on CD2+ T cells (CD2-9069N 5 μg, b-9069 10 μg). The “% T-cells released” value with CD2+ T cells (CD2-9069N 1 μg, b-9069 1 μg) was 71%; in the experiment with CD2+ T cells (CD2-9069N 1 μg, b-9069 10 μg) it was 87% and 65%; with CD2+ T cells (CD2-9069N 5 μg, b-9069 1 μg), 61% and 56%; with CD2+ T cells (CD2-9069N 5 μg, b-9069 10 μg), 50%. Further, the cells released result with Camma cells is on record as “Greater than 75%”. For the same substance, in the experiment on SUP-T1 cells, the “fluorescent signal after addition of free peptide” value is recorded as “eliminated the fluorescent signal”.
